Values joined by “and” are separate entries in the source; they are usually repeats but may differ in a detail not shown here. Equal entries are not always repeated.
Experiments:
Assay in all cases: NCI one-dose screen
Assay type in all cases: cell-based, human
SK-MEL-28 = settings: Melanoma SK-MEL-28, 10 µM single dose
Procedure, shortened: (§1)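 One concentration (10 μM) applied to each line of the full NCI-60 panel; percent growth compared against untreated cells.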

OVCAR-4 = settings: Ovarian OVCAR-4, 10 µM single dose
Procedure, shortened: as §1

BT-549 = settings: Breast BT-549, 10 µM single dose
Procedure, shortened: as §1

TK-10 = settings: Renal TK-10, 10 µM single dose
Procedure, shortened: as §1

HOP-92 = settings: NSCLC HOP-92, 10 µM single dose
Procedure, shortened: as §1

K-562 = settings: Leukemia K-562, 10 µM single dose
Procedure, shortened: as §1

SK-MEL-5 = settings: Melanoma SK-MEL-5, 10 µM single dose
Procedure, shortened: as §1

ACHN = settings: Renal ACHN, 10 µM single dose
Procedure, shortened: as §1

786-0 = settings: Renal 786-0, 10 µM single dose
Procedure, shortened: as §1

IGROV1 = settings: Ovarian IGROV1, 10 µM single dose
Procedure, shortened: as §1

SNB-75 = settings: CNS SNB-75, 10 µM single dose
Procedure, shortened: (§2)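 Single dose of 10 μM tested across the full NCI-60 cell panel. Values are percent growth inhibition relative to untreated control cells, following standard NCI methodology.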

SW-620 = settings: Colon SW-620, 10 µM single dose
Procedure, shortened: as §1

LOX IMVI = settings: Melanoma LOX IMVI, 10 µM single dose
Procedure, shortened: as §1

SN12C = settings: Renal SN12C, 10 µM single dose
Procedure, shortened: as §1

EKVX = settings: NSCLC EKVX, 10 µM single dose
Procedure, shortened: as §2

HOP-62 = settings: NSCLC HOP-62, 10 µM single dose
Procedure, shortened: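 Following the standard NCI-60 protocol, compounds were applied once at 10 μM to all 60 cancer lines. Read-out is percent growth versus untreated controls, expressed as inhibition %.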

U251 = settings: CNS U251, 10 µM single dose
Procedure, shortened: as §2

COLO 205 = settings: Colon COLO 205, 10 µM single dose
Procedure, shortened: as §1

HCC-2998 = settings: Colon HCC-2998, 10 µM single dose
Procedure, shortened: as §1

MALME-3M = settings: Melanoma MALME-3M, 10 µM single dose
Procedure, shortened: as §1

MDA-MB-231/ATCC = settings: Breast MDA-MB-231/ATCC, 10 µM single dose
Procedure, shortened: as §1

NCI-H23 = settings: NSCLC NCI-H23, 10 µM single dose
Procedure, shortened: (§3)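 Each cell line received compound at 10 μM as part of the NCI one-dose protocol. Values reflect growth inhibition percent calculated from growth relative to untreated controls.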

HCT-15 = settings: Colon HCT-15, 10 µM single dose
Procedure, shortened: as §1

MDA-MB-468 = settings: Breast MDA-MB-468, 10 µM single dose
Procedure, shortened: as §3

CCRF-CEM = settings: Leukemia CCRF-CEM, 10 µM single dose
Procedure, shortened: as §1

SF-268 = settings: CNS SF-268, 10 µM single dose
Procedure, shortened: as §3

DU-145 = settings: Prostate DU-145, 10 µM single dose
Procedure, shortened: as §1

RXF 393 = settings: Renal RXF 393, 10 µM single dose
Procedure, shortened: as §1

MCF7 = settings: Breast MCF7, 10 µM single dose
Procedure, shortened: as §3

PC-3 = settings: Prostate PC-3, 10 µM single dose
Procedure, shortened: as §1

OVCAR-8 = settings: Ovarian OVCAR-8, 10 µM single dose
Procedure, shortened: as §1

OVCAR-3 = settings: Ovarian OVCAR-3, 10 µM single dose
Procedure, shortened: as §1

OVCAR-5 = settings: Ovarian OVCAR-5, 10 µM single dose
Procedure, shortened: as §1

NCI-H226 = settings: NSCLC NCI-H226, 10 µM single dose
Procedure, shortened: as §2

NCI-H522 = settings: NSCLC NCI-H522, 10 µM single dose
Procedure, shortened: as §2

| Compound | Growth Percent (SK-MEL-28) | Growth Percent (OVCAR-4) | Growth Percent (BT-549) | Growth Percent (TK-10) | Growth Percent (HOP-92) | Growth Percent (K-562) | Growth Percent (SK-MEL-5) | Growth Percent (ACHN) | Growth Percent (786-0) | Growth Percent (IGROV1) | Growth Percent (SNB-75) | Growth Percent (SW-620) | Growth Percent (LOX IMVI) | Growth Percent (SN12C) | Growth Percent (EKVX) | Growth Percent (HOP-62) | Growth Percent (U251) | Growth Percent (COLO 205) | Growth Percent (HCC-2998) | Growth Percent (MALME-3M) | other results |
| --- | --- | --- | --- | --- | --- | --- | --- | --- | --- | --- | --- | --- | --- | --- | --- | --- | --- | --- | --- | --- | --- |
| COc1cccc(NC(=O)Nc2ccc(Nc3ncnc4sc(C(=O)NCCCC(=O)NO)c(C)c34)cc2)c1 [Compound 12b, 1–(4-(6-((4-(hydroxyamino)-4-oxobutyl)carbamoyl)-5-methylthieno[2,3-d]pyrimidin-4-ylamino)phenyl)-3–(3-methoxyphenyl)urea] | 104.0% and 104.05% | 99.9% and 99.93% | 105.5% and 105.57% | 107.7% and 107.72% | 112.3% and 112.35% | 101.6% and 101.69% | 97.3% and 97.37% | 98.6% and 98.68% | 105.9% | 97.0% and 97.08% | 90.6% and 90.62% | 101.5% and 101.51% | 90.7% and 90.77% | 104.5% and 104.52% | 92.1% and 92.11% | 100.4% and 100.49% | 92.8% and 92.88% | 111.3% and 111.31% | 108.5% and 108.55% | 95.2% and 95.25% | Growth Percent (MDA-MB-231/ATCC): 97.0% and 97.05%; Growth Percent (NCI-H23): 97.5% and 97.53%; Growth Percent (HCT-15): 99.6% and 99.68%; Growth Percent (MDA-MB-468): 97.0% and 97.02%; Growth Percent (CCRF-CEM): 103.5% and 103.52%; Growth Percent (SF-268): 95.1%; Growth Percent (DU-145): 98.5% and 98.54%; Growth Percent (RXF 393): 110.4% and 110.44%; Growth Percent (MCF7): 91.5%; Growth Percent (PC-3): 98.6% and 98.65%; Growth Percent (OVCAR-8): 103.6% and 103.67%; Growth Percent (OVCAR-3): 99.3% and 99.38%; Growth Percent (OVCAR-5): 107.5% and 107.59%; Growth Percent (NCI-H226): 96.6% and 96.68%; Growth Percent (NCI-H522): 81.7% and 81.76% |
| Cc1c(C(=O)NCCC(=O)NO)sc2ncnc(Nc3ccc(NC(=O)Nc4cccc(C(F)(F)F)c4)cc3)c12 [Compound 11c, 1–(4-(6-((3-(hydroxyamino)-3-oxopropyl)carbamoyl)-5-methylthieno[2,3-d]pyrimidin-4-ylamino)phenyl)-3–(3-(trifluoromethyl)phenyl)urea] | 109.7% and 109.72% | 105.0% and 105.02% | 137.1% and 137.18% | 140.4% and 140.42% | 115.4% | 103.6% and 103.67% | 97.1% and 97.12% | 101.7% and 101.74% | 115.6% and 115.64% | 102.2% and 102.29% | 78.8% | 104.3% and 104.35% | 94.5% and 94.53% | 100.0% and 100.06% | 90.7% and 90.76% | 101.7% | 80.2% and 80.22% | 112.9% | 111.5% and 111.56% | 112.1% and 112.11% | Growth Percent (MDA-MB-231/ATCC): 105.2% and 105.25%; Growth Percent (NCI-H23): 100.0% and 100.01%; Growth Percent (HCT-15): 101.2% and 101.22%; Growth Percent (MDA-MB-468): 97.1% and 97.16%; Growth Percent (CCRF-CEM): 98.8% and 98.82%; Growth Percent (SF-268): 93.3% and 93.37%; Growth Percent (DU-145): 105.3% and 105.34%; Growth Percent (RXF 393): 103.8% and 103.88%; Growth Percent (MCF7): 89.2% and 89.23%; Growth Percent (PC-3): 100.2% and 100.24%; Growth Percent (OVCAR-8): 102.2% and 102.23%; Growth Percent (OVCAR-3): 111.6%; Growth Percent (OVCAR-5): 104.4% and 104.48%; Growth Percent (NCI-H226): 97.9%; Growth Percent (NCI-H522): 94.3% and 94.36% |

Reference: PMC8253220, “Molecular design, synthesis and in vitro biological evaluation of thienopyrimidine–hydroxamic acids as chimeric kinase HDAC inhibitors: a challenging approach to combat cancer” (Journal of Enzyme Inhibition and Medicinal Chemistry, 2021)
